# Assay results: ChEMBL document CHEMBL4431297 (Medchemcomm, 2016)
# Activity calls are given as the source filed them. No cut-off for these calls is given here.
# Legend:
# Format in all cases: protein-complex assay
# [1] = biological target: DNA gyrase (Escherichia coli, UniProt P0AES4+P0AES6, S83W); test: (§1) Inhibition of Escherichia coli JMtacA/JMtacB DNA gyrase subunit A2B2 S83W mutant using relaxed pBR322 DNA as substrate incubated for 30 mins in presence of ATP by ethidium bromide staining based agarose gel electrophoresis
# [2] = biological target: T1, DNA gyrase (Escherichia coli) (UniProt P0AES6+P0AES4); test: (§2) Inhibition of wild type Escherichia coli DNA gyrase subunit A2B2 using supercoiled pBR322 DNA as substrate assessed as stabilization of enzyme-DNA cleavage complex by measuring linear DNA bands at 100 uM incubated for 30 mins in presence of proteinase K/SDS and in absence of ATP by ethidium bromide staining based agarose gel electrophoresis
# [3] = tested on: DNA gyrase (Escherichia coli), P0AES6+P0AES4 [UNDEFINED MUTATION]; test: Inhibition of Escherichia coli JMtacA/JMtacB DNA gyrase subunit A2B2 S83W mutant at 100 uM using relaxed pBR322 DNA as substrate incubated for 30 mins in presence of ATP by ethidium bromide staining based agarose gel electrophoresis
# [4] = biological target: T1, DNA gyrase (Escherichia coli); test: as §2, with “bands at 10 to 100 uM” for “bands at 100 uM”
# [5] = biological target: T1, DNA gyrase (Escherichia coli); test: as §2, with “1” for “100”
# [6] = tested on: DNA gyrase (Escherichia coli), P0AES6+P0AES4 [UNDEFINED MUTATION]; test: Inhibition of Escherichia coli JMtacA/JMtacB DNA gyrase subunit A2B2 S83W mutant at 50 to 300 uM using relaxed pBR322 DNA as substrate incubated for 30 mins in presence of ATP by ethidium bromide staining based agarose gel electrophoresis
# [7] = tested on: DNA gyrase (Escherichia coli), P0AES6+P0AES4 [UNDEFINED MUTATION]; test: Inhibition of Escherichia coli JMtacA/JMtacB DNA gyrase subunit A2B2 S83W mutant at 50 uM using relaxed pBR322 DNA as substrate incubated for 30 mins in presence of ATP by ethidium bromide staining based agarose gel electrophoresis
# [8] = biological target: T1, DNA gyrase (Escherichia coli); test: as §2, with “bands at 50 to 100 uM” for “bands at 100 uM”
# [9] = tested on: DNA gyrase (Escherichia coli), P0AES6+P0AES4 [UNDEFINED MUTATION]; test: Inhibition of Escherichia coli JMtacA/JMtacB DNA gyrase subunit A2B2 S83W mutant at 25 uM using relaxed pBR322 DNA as substrate incubated for 30 mins in presence of ATP by ethidium bromide staining based agarose gel electrophoresis
# [10] = tested on: DNA gyrase (Escherichia coli), P0AES6+P0AES4 [UNDEFINED MUTATION]; test: as §1
# [11] = biological target: T1, DNA gyrase (Escherichia coli); test: Inhibition of wild type Escherichia coli DNA gyrase subunit A2B2 at 100 uM using relaxed pBR322 DNA as substrate incubated for 30 mins in presence of ATP by ethidium bromide staining based agarose gel electrophoresis
# [12] = biological target: DNA gyrase (Escherichia coli, UniProt P0AES4+P0AES6); test: Inhibition of wild type Escherichia coli DNA gyrase subunit A2B2 using relaxed pBR322 DNA as substrate incubated for 30 mins in presence of ATP by ethidium bromide staining based agarose gel electrophoresis
structure (smiles),measurement,setting,value
COC(=O)/C=C/C=C/C=C/C=C/C(=O)Nc1c(O)c2ccc(O)c(Cl)c2oc1=O,IC50,[1],70 µM
O=C(CCCCCCCCC(=O)N1CCN(c2cc3c(cc2F)c(=O)c(C(=O)O)cn3C2CC2)CC1)Nc1ccccc1,inhibition,[2],Active
same,inhibition,[3],inactive
O=C(CCCCCCCCC(=O)N1CCN(c2cc3c(cc2F)c(=O)c(C(=O)O)cn3C2CC2)CC1)Nc1cc2ccccc2oc1=O,inhibition,[4],Active
same,IC50,[1],3 µM
CC(=O)O[C@@H]1[C@@H](C)O[C@@H](c2ccc3c(c2O)[C@@H](O)[C@]24O[C@@]2(C3=O)[C@@]2(O)C(=O)C=C(C)C[C@@]2(O)C[C@@H]4O)C[C@H]1OC(=O)/C=C/C=C/C=C/C=C/C(=O)Nc1c(O)c2ccc(O)c(Cl)c2oc1=O,inhibition,[5],inactive
Nc1cc2ccccc2oc1=O,inhibition,[6],inactive
CC(=O)O[C@@H]1[C@@H](C)O[C@@H](c2ccc3c(c2O)[C@@H](O)[C@]24O[C@@]2(C3=O)[C@@]2(O)C(=O)C=C(C)C[C@@]2(O)C[C@@H]4O)C[C@H]1OC(=O)/C=C/C=C/C=C/C=C/C(=O)O,IC50,[1],50 µM
CC(=O)Nc1cc2ccccc2oc1=O,inhibition,[7],inactive
O=C(O)CCCCCCCCC(=O)N1CCN(c2cc3c(cc2F)c(=O)c(C(=O)O)cn3C2CC2)CC1,inhibition,[8],Active
same,inhibition,[9],inactive
CCOC(=O)c1cn(C2CC2)c2cc(N3CCN(C(=O)CCCCCCCCC(=O)OC)CC3)c(F)cc2c1=O,inhibition,[10],inactive
same,inhibition,[11],inactive
CCOC(=O)c1cn(C2CC2)c2cc(N3CCN(C(=O)CCCCCCCCC(=O)Nc4ccccc4)CC3)c(F)cc2c1=O,inhibition,[10],inactive
same,inhibition,[11],inactive
CCOC(=O)c1cn(C2CC2)c2cc(N3CCNCC3)c(F)cc2c1=O [CIPROFLOXACIN ETHYL ESTER],inhibition,[10],Active
same,IC50,[12],10 µM
CCOC(=O)c1cn(C2CC2)c2cc(N3CCN(C(=O)CCCCCCCCC(=O)Nc4cc5ccccc5oc4=O)CC3)c(F)cc2c1=O,inhibition,[10],inactive
same,inhibition,[11],inactive
